US10052320B2, “Substituted quinoxalines as FGFR kinase inhibitors” (ASTEX THERAPEUTICS LIMITED, priority 2011, dated 2018)
Read-outs that look alike come from different tables or passages of the source.

Key:
[1] = system: Ba/F3-Flt3-transfected cells in the presence of 10 ng/ml murine IL3; test: Ba/F3-Flt3 (plus IL3) cellular proliferation counterscreen, Alamar Blue; type: cell-based; conditions: plus 10 ng/ml murine IL3; for IC50: Mus musculus, read-out: BAF3-FLT3 (PLUS IL3) 384 well pIC50 (converted)
Description: Ba/F3-Flt3 (Minus IL3 or Plus IL3) (Cellular Proliferation Assay)
(§1) In a 384 well plate, 100 nl of compound dilution in DMSO was sprayed before adding 50 μl cell culture medium (phenol red free RPMI-1640, 10% FBS, 2 mM L-Glutamine and 50 μg/ml Gentamycin) containing 20000 cells per well of Ba/F3-Flt3-transfected cells. Cells were put in an incubator at 37° C. and 5% CO2. After 24 hours, 10 μl of Alamar Blue solution (0.5 mM K3Fe(CN)6, 0.5 mM KaFe(CN)6, 0.15 mM Resazurin and 100 mM Phosphate Buffer) was added to the wells, incubated for 4 hours at 37° C. and 5% CO2 before RFU's (Relative Fluorescence Units) (ex. 540 nm., em. 590 nm.) were measured in a flurorescence plate reader.
(§2) As a counterscreen the same experiment was performed in the presence of 10 ng/ml murine IL3.
as §1, with “a 96” for “a 384”, “plate, 180” for “plate, 100 nl of compound dilution in DMSO was sprayed before adding 50”, “containing 10000” for “containing 20000”, “Ba/F3-Flt3-transfected cells were pipette and 20 μl of compound dilution in DMSO was added.” for “Ba/F3-Flt3-transfected cells.”, “hours, 40” for “hours, 10”

FGFR1 (h) = FGFR1 (h) (Homo sapiens, UniProt P11362); test: FGFR1 (enzymatic assay), TR-FRET; type: biochemical; conditions: read-out: FGFR 1 pIC50 (converted)
Sequence of FGFR1 (h) (P11362 22-822): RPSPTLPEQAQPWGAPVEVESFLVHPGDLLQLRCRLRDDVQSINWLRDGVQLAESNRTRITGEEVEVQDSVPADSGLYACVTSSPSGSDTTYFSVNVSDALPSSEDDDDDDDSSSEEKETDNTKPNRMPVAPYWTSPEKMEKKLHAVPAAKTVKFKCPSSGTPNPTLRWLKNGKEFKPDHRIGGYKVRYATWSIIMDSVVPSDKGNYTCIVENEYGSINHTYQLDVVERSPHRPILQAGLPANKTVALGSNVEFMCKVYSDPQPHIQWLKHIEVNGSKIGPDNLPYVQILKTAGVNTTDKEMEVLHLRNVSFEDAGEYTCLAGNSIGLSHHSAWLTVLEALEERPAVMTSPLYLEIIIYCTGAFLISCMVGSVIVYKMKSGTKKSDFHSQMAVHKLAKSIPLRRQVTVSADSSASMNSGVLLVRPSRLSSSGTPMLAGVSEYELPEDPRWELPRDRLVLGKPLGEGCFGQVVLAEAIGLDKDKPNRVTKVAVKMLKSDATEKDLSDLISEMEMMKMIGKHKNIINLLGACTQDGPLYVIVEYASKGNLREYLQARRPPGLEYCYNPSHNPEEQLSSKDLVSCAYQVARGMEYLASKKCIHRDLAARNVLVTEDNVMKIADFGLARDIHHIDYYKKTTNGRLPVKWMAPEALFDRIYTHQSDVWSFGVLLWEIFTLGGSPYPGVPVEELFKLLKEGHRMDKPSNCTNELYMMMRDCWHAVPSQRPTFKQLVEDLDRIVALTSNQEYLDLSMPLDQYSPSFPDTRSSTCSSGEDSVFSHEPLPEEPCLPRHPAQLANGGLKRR
Description: In a final reaction volume of 30 μL, FGFR1 (h) (25 ng/ml) was incubated with 50 mM HEPES pH 7.5, 6 mM MnCl2, 1 mM DTT, 0.1 mM Na3VO4, 0.01% Triton-X-100, 500 nM Btn-Flt3 and 5 μM ATP in the presence of compound (1% DMSO final). […] Time-Resolved Fluorescence Resonance Energy Transfer (TR-FRET) signal (ex340 nm. Em 620 nm, em 655 nm) was measured afterwards and results are expressed in RFU (Relative Fluorescence Units).

[2] = system: Ba/F3-FGFR1-transfected cells in the presence of 10 ng/ml murine IL3; test: Ba/F3-FGFR1 (plus IL3) cellular proliferation counterscreen, Alamar Blue; type: cell-based; conditions: for IC50: Mus musculus
Description: Ba/F3-FGFR1 (Minus IL3 or Plus IL3) (Cellular Proliferation Assay)
as §1, with “Ba/F3-FGFR1-transfected” for “Ba/F3-Flt3-transfected”
as §2
as §1, with “a 96” for “a 384”, “plate, 180” for “plate, 100 nl of compound dilution in DMSO was sprayed before adding 50”, “containing 10000” for “containing 20000”, “of Ba/F3-FGFR1-transfected cells were pipette and 20 μl of compound dilution in DMSO was added.” for “of Ba/F3-Flt3-transfected cells.”, “hours, 40” for “hours, 10”

[3] = target: Ba/F3-FGFR3-transfected cells (Homo sapiens, UniProt P22607); test: Ba/F3-FGFR3 (minus IL3) cellular proliferation assay, Alamar Blue; type: cell-based; conditions: for BAF3-FGFR 3 (MIN IL3) 384 well pIC50: minus IL3, 384 well; for BAF3-FGFR 3 (MIN IL3) 96 well pIC50: minus IL3, 96 well
Sequence of Ba/F3-FGFR3-transfected cells (P22607 whole entry, change not shown): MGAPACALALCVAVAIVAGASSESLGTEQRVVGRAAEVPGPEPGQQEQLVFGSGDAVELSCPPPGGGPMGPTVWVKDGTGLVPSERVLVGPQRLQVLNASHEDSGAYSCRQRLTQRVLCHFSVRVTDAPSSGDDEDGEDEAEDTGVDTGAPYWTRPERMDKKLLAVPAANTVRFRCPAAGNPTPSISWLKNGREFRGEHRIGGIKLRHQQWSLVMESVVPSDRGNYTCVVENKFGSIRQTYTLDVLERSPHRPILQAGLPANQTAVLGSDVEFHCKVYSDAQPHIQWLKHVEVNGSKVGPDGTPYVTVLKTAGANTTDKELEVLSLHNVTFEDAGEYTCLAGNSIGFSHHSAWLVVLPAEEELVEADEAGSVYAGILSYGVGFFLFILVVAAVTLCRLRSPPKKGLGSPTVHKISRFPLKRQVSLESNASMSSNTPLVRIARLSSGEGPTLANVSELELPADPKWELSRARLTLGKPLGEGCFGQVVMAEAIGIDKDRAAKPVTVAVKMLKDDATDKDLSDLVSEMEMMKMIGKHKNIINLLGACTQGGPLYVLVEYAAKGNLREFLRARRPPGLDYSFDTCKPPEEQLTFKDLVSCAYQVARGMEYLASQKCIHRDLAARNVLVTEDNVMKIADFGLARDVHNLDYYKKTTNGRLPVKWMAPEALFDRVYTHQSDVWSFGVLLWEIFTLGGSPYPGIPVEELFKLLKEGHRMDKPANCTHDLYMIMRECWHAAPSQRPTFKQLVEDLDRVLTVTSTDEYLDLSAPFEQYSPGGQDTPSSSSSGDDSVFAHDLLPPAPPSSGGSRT
Description: Ba/F3-FGFR3 (Minus IL3 or Plus IL3) (Cellular Proliferation Assay)
Cells were put in an incubator at 37° C. and 5% CO2. After 24 hours, 10 μl of Alamar Blue solution (0.5 mM K3Fe(CN)6, 0.5 mM KaFe(CN)6, 0.15 mM Resazurin and 100 mM Phosphate Buffer) was added to the wells, incubated for 4 hours at 37° C. and 5% CO2 before RFU's (Relative Fluorescence Units) (ex. 540 nm., em. 590 nm.) were measured in a flurorescence plate reader. […]
as §1, with “a 96” for “a 384”, “plate, 180” for “plate, 100 nl of compound dilution in DMSO was sprayed before adding 50”, “containing 10000” for “containing 20000”, “of Ba/F3-FGFR3-transfected cells were pipette and 20 μl of compound dilution in DMSO was added.” for “of Ba/F3-Flt3-transfected cells.”, “hours, 40” for “hours, 10”

[4] = plus IL3, 384 well, read-out: BAF3-FGFR 1 (PLUS IL3) 384 well pIC50 (converted)

IC50 (FGFR1 (h)) | BAF3-FGFR 3 (MIN IL3) 384 well pIC50 [3] | BAF3-FGFR 3 (MIN IL3) 96 well pIC50 [3] | melting point | SMILES | IC50 [1] | IC50 [2, 4] | BAF3-FLT3 (PLUS IL3) 384 well pIC50 [1] | BAF3-FGFR 1 (PLUS IL3) 384 well pIC50 ([2]; plus IL3, 384 well) | IC50 ([2]; plus IL3, 96 well, read-out: BAF3-FGFR 1 (PLUS IL3) 96 well pIC50 (converted))
1320 nM | <5 | <5 | 160 °C | COc1cc(OC)cc(N(CC2CC2)c2ccc3ncc(-n4cccn4)nc3c2)c1 [Compound 95] |  |  |  |  | 
4.37 nM | 5.57 |  |  | COc1cc(OC)cc(N(CCCNCCCO)c2ccc3ncc(-c4ccnc(C(=O)NCCCCN)c4)nc3c2)c1 [Compound 132] | ~5500 nM | > 10000 nM |  |  | 
2 nM | 6.3 |  | 179 °C | COc1cc(OC)cc(N(CCCO)c2ccc3ncc(-c4cnc(N5CCN(C)CC5)c(C)c4)nc3c2)c1 [Compound 135] |  |  |  |  | 
3.72 nM | ~5.83 |  | 172 °C | COc1cc(OC)cc(N(CCCNC(C)C)c2ccc3ncc(-c4ccnc(NC(=O)OC(C)(C)C)c4)nc3c2)c1 [Compound 137] |  |  |  |  | 
22.9 nM | 5.04 |  |  | COc1cc(OC)cc(N(CCO)c2ccc3ncc(-c4ccnc(C(=O)NCCCCCN)c4)nc3c2)c1 [Compound 138] |  |  |  |  | 
31.6 nM | 5.72 |  |  | COc1cc(OC)cc(N(CCO)c2ccc3ncc(-c4ccnc(C(=O)NCCCCCO)c4)nc3c2)c1 [Compound 139] | > 10000 nM | > 10000 nM |  |  | 
1.05 nM | 6.4 |  |  | COc1cc(OC)cc(N(CCCNC(C)C)c2ccc3ncc(-c4ccnc(N)c4)nc3c2)c1 [Compound 143] | 6610 nM | 5620 nM |  |  | 
2 nM | 6.41 |  |  | COc1cc(OC)cc(N(CCNC(C)C)c2ccc3ncc(-c4ccnc(C(=O)NCCCN)c4)nc3c2)c1 [Compound 146] | > 10000 nM | > 10000 nM |  |  | 
398 nM | <5 |  |  | COc1cc(OC)cc(N(CCCNCC(F)(F)F)c2ccc3ncc(C(=O)NCCN4CCOCC4)nc3c2)c1 [Compound 158] | > 10000 nM | > 10000 nM |  |  | 
42.7 nM |  |  |  | COc1cc(OC)cc(N(CCNC(C)C)c2ccc3ncc(C(=O)NCCN4CCOCC4)nc3c2)c1 [Compound 160] | > 10000 nM | > 10000 nM |  |  | 
10 nM | 6.17 |  | 122 °C | COc1cc(OC)cc(N(CCNC(C)C)c2ccc3ncc(-c4ccnn4C4CCCCO4)nc3c2)c1 (stereo not drawn) [Compound 188] |  | > 10000 nM |  |  | 
2.82 nM | ~7.1 |  |  | COc1cc(OC)cc(N(CCNC(C)C)c2ccc3ncc(-c4ccn[nH]4)nc3c2)c1 [Compound 189] |  | > 10000 nM |  |  | 

Second part, the molecule before the results:

SMILES | IC50 (FGFR1 (h)) | BAF3-FGFR 3 (MIN IL3) 384 well pIC50 [3] | BAF3-FGFR 3 (MIN IL3) 96 well pIC50 [3] | melting point | IC50 [1] | IC50 [2, 4] | BAF3-FLT3 (PLUS IL3) 384 well pIC50 [1] | BAF3-FGFR 1 (PLUS IL3) 384 well pIC50 ([2]; plus IL3, 384 well) | IC50 ([2]; plus IL3, 96 well, read-out: BAF3-FGFR 1 (PLUS IL3) 96 well pIC50 (converted))
COCC(CN(c1cc(OC)cc(OC)c1)c1ccc2ncc(-c3cccnc3)nc2c1)OC(C)=O (single isomer, unassigned) [Compound 52] | 87.1 nM | ~6.17 |  |  | > 10000 nM | > 10000 nM |  |  | 
COCC(CN(c1cc(OC)cc(OC)c1)c1ccc2ncc(-c3cccnc3)nc2c1)OC(C)=O (single isomer, unassigned) [Compound 76] | 11.7 nM | 6.59 |  |  |  |  | <5 | <5 | 
COc1cc(OC)cc(N(CCCNCC(F)(F)F)c2ccc3ncc(-c4ccn(C)c4)nc3c2)c1 [Compound 5] | 6.92 nM | 6.57 |  |  | > 10000 nM | > 10000 nM |  |  | 
COc1cc(OC)cc(N(CC2CC2)c2ccc3ncc(N4CCN(CCO)CC4)nc3c2)c1 [Compound 49] | 316 nM | <5 | 5.5 |  | > 10000 nM | > 10000 nM |  |  | 
COc1cc(OC)cc(N(CCNC(C)C)c2ccc3ncc(N4CCC(CN)CC4)nc3c2)c1 [Compound 67] | 3.31 nM | 5.83 |  |  | > 10000 nM | 8510 nM |  |  | 
COc1cc(OC)cc(N(CCNC(C)C)c2ccc3ncc(-n4cnc(CO)c4)nc3c2)c1 [Compound 77] | 2.24 nM | 7.12 |  |  | > 10000 nM | > 10000 nM |  |  | 
COc1cc(OC)cc(N(CCO)c2ccc3ncc(N4CCC(CN)CC4)nc3c2)c1 [Compound 84] | 44.7 nM | <5 |  | 159 °C |  |  |  |  | 
COc1cc(OC)cc(N(CC2CC2)c2ccc3ncc(-c4nnc(C)o4)nc3c2)c1 [Compound 85] | 302 nM | <5 | 5.06 | 134 °C |  |  |  |  | 
COc1cc(OC)cc(N(CC2CC2)c2ccc3ncc(-c4ccc5[nH]ccc5c4)nc3c2)c1 [Compound 86] | 513 nM | <5 | 5.4 | 181 °C |  |  |  |  | 
COc1cc(OC)cc(N(CC2CC2)c2ccc3ncc(-c4ccc5c(c4)OCO5)nc3c2)c1 [Compound 87] | 617 nM | <5.4 |  | 144 °C |  |  |  |  | 
COc1cc(OC)cc(N(CC2CC2)c2ccc3ncc(-c4cnc5[nH]ccc5c4)nc3c2)c1 [Compound 88] | 575 nM | <5 | <5 | 234 °C |  |  |  |  | 
COc1cc(OC)cc(N(CC2CC2)c2ccc3ncc(-c4ccnc(N5CCOCC5)c4)nc3c2)c1 [Compound 90] | 589 nM |  | 5.09 | 162 °C |  |  |  |  | > 10000 nM
COc1cc(OC)cc(N(CC2CC2)c2ccc3ncc(-c4cccc(N5CCOCC5)c4)nc3c2)c1 [Compound 92] | 363 nM | <5 | <5 | 155 °C |  |  |  |  | 
